“And” between values parts separate entries of the source, which are not always exact repeats. Equal values may be shown once.
System: 415267-285-R-J2-PDC complex spheroid viability
Experiment: Anticancer human tumor 415267-285-R-J2-PDC patient-derived breast carcinoma cell line growth inhibition [POLQ]
Settings: for viability, T/C: stronger effect = lower value
Protocol: Multicellular complex tumor spheroid response to Polymerase (POL) inhibitors (novobiocin, ART-558, RP6685) in combination with a variety of drugs and investigational agents in selected tumor cell lines
The POL inhibitors (novobiocin, ART-558, and RP6685) were evaluated both individually and in combination with standard of care and investigational anticancer small molecules within a complex spheroid model of solid tumors. . Complex spheroids include a stromal component modeled by human endothelial cells (HUVEC) and fibroblasts modeled by human mesenchymal stem cells (MSCs). The concentration ranges selected for each drug and investigational agent were based upon clinically achievable concentrations if the clinical Cmax of the agent was known.
Compounds. The drugs and investigational agents: novobiocin (NSC847541), ART-558 (NSC835418), RP-6685 (NSC848927), peposertib (NSC802822), ceralasertib (NSC780249), elimusertib (NSC800525), camonsertib (NSC841442), AZD-1390 (NSC803789), olaparib (NSC753686), talazoparib (NSC767125), rucaparib (NSC756644), sotorasib (NSC818433), MRTX-1133 (NSC836407), SN-38 (NSC673596), topotecan (NSC609699), epotoside (NSC141540), doxorubicin (NSC123127), gemcitabine (NSC613327), 5-fluorouracil (NSC19893), paclitaxel (NSC125973), vemurafenib (NSC761431), MSA-2 (NSC828583), SN-011 (NSC837082), adavosertib (NSC754352), prexasertib (NSC758257), carboplatin (NSC241240) and oxaliplatin (NSC266046), were obtained from the National Cancer Institute (NCI) Developmental Therapeutics Program Chemical Repository (21). The FDA-approved anticancer drug set is available from the Developmental Therapeutics Program at https://dtp.cancer.gov/organization/dscb/obtaining/. […] The stock solutions were prepared in dimethyl sulfoxide (DMSO, Sigma-Aldrich, St. Louis, MO, cat. D2650), except for the platinum compounds which were prepared in saline (Quality Biological, Gaithersburg, MD, cat. 114-055-101), at 800-fold the tested concentration and stored at -70 degrees C prior to their use. All drugs and investigational agents were tested over a range starting from a high concentration at or near the clinical Cmax and decreasing in half-log increments. If the clinical Cmax for an agent had not been determined, the highest concentration tested was 10 microM, except for SN-38, which was tested at a high concentration of 1 microM.
Cell Culture. All cells were maintained in an incubator at 37 degrees C and 5% CO2 with 95% humidity. The PDC lines were cultured according to standard operating procedures established by the NCI PDMR (https://pdmr.cancer.gov). Table 3 of the manuscript, lists the cell lines along with the number of the three cell types plated to form the mct-spheroids and media for tumor cell growth. After thawing, all PDC lines, except 997537-175-T-J1-PDC and 415267-285-R-J2-PDC, were cultured in Matrigel-coated flasks prepared with a working solution of 1X Ham's F-12 nutrient mix, without supplementation (Thermo Fisher Scientific, cat. 11765054), 100 U/mL penicillin-streptomycin (Thermo Fisher Scientific, cat. 15140122), and 2.5% Matrigel (Corning Inc., Corning, NY, cat. 354248) for the first three passages. The two PDC lines 997537-175-T-J1-PDC and 415267-285-R-J2-PDC were cultured on uncoated flasks. The 857933-349-R-J2-PDC line was cultured in 6C/Colon 1B media containing advanced DMEM/F-12 (Thermo Fisher Scientific, cat. 12634028), 10 mM HEPES (Thermo Fisher Scientific, cat. 15630080), 1X GlutaMAX supplement (Thermo Fisher Scientific, cat. 35050061), 0.1 mg/mL primocin (InvivoGen, San Diego, CA, cat. ant-pm-2), 10% defined fetal bovine serum, heat inactivated (HyClone Laboratories Inc., Logan, UT, cat. SH30070.03HI), 50% L-WRN conditioned media (ATCC, cat. CRL-3276), 1.25 mM N-Acetyl-L-cysteine (Sigma-Aldrich, cat. A9165), 10 mM nicotinamide (Sigma-Aldrich, cat. N0636), 1X B-27 supplement (Thermo Fisher Scientific, cat. 17504044), 1X N-2 supplement (Thermo Fisher Scientific, cat. […]

[1] = compound alone, run of 01/08/2024
[2] = compound alone, run of 01/19/2024
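Further: spheroids exposed to compounds for one week before readout.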
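Wherever viability, T/C is given: luminescence used as stand-in measure of viable cells; 100% = DMSO vehicle control viability.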

Row | SMILES | viability, T/C (compound 0.0316 µM) | viability, T/C (compound 0.1 µM) | viability, T/C (compound 0.316 µM) | viability, T/C (compound 1 µM) | viability, T/C (compound 3.16 µM) | viability, T/C (compound 10 µM) | IC50 (curve of compound) | IC50 [1] [nM] | viability, T/C (compound 0.00316 µM) | IC50 [2] [nM] | viability, T/C (compound 0.000316 µM) | viability, T/C (compound 0.001 µM) | viability, T/C (compound 0.01 µM)
1 | CNCc1ccc(-c2[nH]c3cc(F)cc4c3c2CCNC4=O)cc1 | 107% and 95.9% and 101% | 109% and 115% and 101% | 96.2% and 94.8% and 102% | 94.9% and 105% and 102% | 108% and 96% and 106% | 103% and 98.2% and 107% | > 10000 nM | – | – | – | – | – | –
2 | COC1C(OC(N)=O)C(O)C(Oc2ccc3c(O)c(NC(=O)c4ccc(O)c(CC=C(C)C)c4)c(=O)oc3c2C)OC1(C)C (stereo unspecified) | 99.2% [middle of 13 runs] | 105% [middle of 13 runs] | 99.3% [middle of 13 runs] | – | 102% [middle of 13 runs] | 102% [middle of 13 runs] | – | > 10000 | – | – | – | – | –
3 | COc1cc(C2c3cc4c(cc3C(OC3OC5COC(C)OC5C(O)C3O)C3COC(=O)C23)OCO4)cc(OC)c1O (stereo unspecified) | 91.8% and 103% and 92% | 59.7% and 89.7% and 71.3% | 14.1% and 19.4% and 17.1% | 7.22% and 5.65% and 8.76% | 4.9% and 4.07% and 5.15% | 5.87% and 5.42% and 6.28% | 128 nM and 192 nM and 157 nM | – | – | – | – | – | –
4 | COc1cc2cc(C(=O)CCC(=O)O)sc2cc1OC | 99.2% and 104% and 92.9% | 101% and 104% and 90.8% | 93.2% and 88% and 110% | 104% (2×) and 99.6% | 94.7% and 99.9% and 99.6% | 111% and 99.6% and 109% | > 10000 nM | – | – | – | – | – | –
5 | COc1ccc([C@@H](O)c2cc(-c3ncnc4cc(N5CCOCC5)ccc34)c(F)cc2Cl)nn1 | 95.9% and 109% and 85.5% | 113% and 97.3% and 88.6% | 95.8% and 98.6% and 91.6% | 95.5% and 92.4% and 92.3% | 86% and 89.3% and 87.6% | 40.4% and 53.2% and 40.9% | 7850 nM and > 10000 nM and 7990 nM | – | – | – | – | – | –
6 | COc1cccc(OCCCN)c1-c1cc(Nc2cnc(C#N)cn2)n[nH]1 | 6.92% and 6.25% and 7.08% | 6.87% and 6.41% and 5.7% | 6.1% and 4.51% and 5.49% | 4.67% and 5.09% and 3.72% | – | – | < 3.16 nM and 7.96 nM and 7.26 nM | – | 36.5% and 110% and 99.9% | – | – | – | –
7 | COc1cccc2c1C(=O)c1c(O)c3c(c(O)c1C2=O)CC(O)(C(=O)CO)CC3OC1CC(N)C(O)C(C)O1 (stereo unspecified) | 35.4% and 85.5% and 41% | 9.21% and 18.3% and 12.6% | 5.21% and 3.68% and 5.75% | 0.77% and 1.01% and 0.92% | 2.13% and 1.47% and 1.31% | 2.79% and 3.72% and 2.89% | < 31.6 nM and 58.1 nM | – | – | – | – | – | –
8 | Cc1cccc(N(C)C(=O)C2C(O)CCN2c2nc(C)cc(C(F)(F)F)c2C#N)c1 (stereo unspecified) | 99.1% [middle of 13 runs] | 100% [middle of 13 runs] | 102% [middle of 13 runs] | 103% [middle of 13 runs] | 104% [middle of 13 runs] | 98.5% [middle of 13 runs] | – | > 10000 | – | > 10000 | – | – | –
9 | Cn1ncnc1[C@H]1c2n[nH]c(=O)c3cc(F)cc(c23)N[C@@H]1c1ccc(F)cc1 | 108% and 89.2% and 99% | 93.3% and 102% and 100% | – | – | – | – | > 100 nM | – | 90.7% and 92.5% and 103% | – | 88.1% and 97.7% and 104% | 98.2% and 104% and 91.7% | 101% and 98.7% and 94.5%
10 | Nc1ccc(C#CCN(C(=O)Cc2ncc(C(F)(F)F)cc2C(F)(F)F)c2ccc(F)cc2)nn1 | 93.6% [middle of 13 runs] | 101% [middle of 13 runs] | 101% [middle of 12 runs] | 103% [middle of 13 runs] | 107% [middle of 13 runs] | 106% [middle of 13 runs] | – | – | – | > 10000 | – | – | –
11 | Nc1ccn(C2OC(CO)C(O)C2(F)F)c(=O)n1 (stereo unspecified) | – | 5.29% and 5.02% and 7.12% | 6.27% and 4.87% and 6.14% | 5.28% and 7.75% and 7.66% | 5.29% and 4.37% and 5.37% | 6.07% and 4.68% and 5.14% | < 31.6 nM | – | – | – | – | – | –
12 | O=C(Nc1ccc(O)c(NS(=O)(=O)c2ccc(F)cc2)c1)c1ccc(-c2ccccc2)cc1 | 111% and 102% and 103% | 108% and 97.2% and 98.4% | 107% and 98.6% and 103% | 92.3% and 107% and 105% | 109% and 101% and 98.1% | 68.7% and 71.7% and 46.8% | > 10000 nM and 9320 nM | – | – | – | – | – | –
13 | O=C(c1cc(Cc2n[nH]c(=O)c3ccccc23)ccc1F)N1CCN(C(=O)C2CC2)CC1 | 92.7% and 95.5% and 108% | 109% and 91.4% and 105% | 86.8% and 95.3% and 97.5% | 87.8% and 94.8% and 102% | 95.3% and 95.4% and 109% | 76.9% and 90.6% and 102% | > 10000 nM | – | – | – | – | – | –
14 | O=c1[nH]cc(F)c(=O)[nH]1 | 87.3% and 92.5% and 87% | 74.7% and 89% and 73.5% | 33.6% and 48.5% and 30.5% | 29.1% and 24.6% and 27.7% | 24.6% and 24.4% and 26% | 31.8% and 40.5% and 34.1% | 200 nM and 302 nM and 187 nM | – | – | – | – | – | –
